{"source": "patent US20210369803A1", "about": "“COMPOSITION CONTAINING SALVIA MILTIORRHIZA BUNGE EXTRACT AS ACTIVE INGREDIENT FOR TREATMENT OR PREVENTION OF BENIGN PROSTATIC HYPERPLASIA OR ALOPECIA” (CUROME BIOSCIENCES CO., LTD., priority 2019, published 2021)", "key": {"[1]": {"system": "steroid receptor coactivator-1 (SRC-1)", "assay": "Western blot of SRC-1 expression in DHT-treated LNCaP cells", "assay_type": "cell-based, human", "details": "5 μM, DHT-induced LNCaP cells", "method": "(§1) Animal cells were cultured to investigate the effect of the Salvia miltiorrhiza Bunge extract of the present invention on benign prostatic hyperplasia or alopecia. Human prostate adenocarcinoma cell line LNCaP cells sensitive to androgens were used as animal cells, and purchased from the Korean Cell Line Bank (Seoul, Korea, KCLB #:21740). The cells were cultured in Roswell Park Memorial Institute (RPMI) medium supplemented with […] penicillin/streptomycin and 10% fetal bovine serum (FBS), and maintained in a CO2 incubator at 37° C.\n(§2) Goat anti-rabbit immunoglobulin G (IgG, 7074) and anti-mouse IgG (7076) were purchased from Cell Signaling (Danvers, Mass.). […]\n(§3) The LNCaP cells were seeded onto 6-well plates (1×10^6 cells/well) in 2 mL of RPMI medium supplemented with 10% FBS, 100 U/mL penicillin, and […] streptomycin. […] The lysed cells were centrifuged at 13,000 RPM for 20 minutes at 4° C., and the protein concentration was determined using BCA assay. […] The chemiluminescent intensities of protein signals were quantified using ImageJ 1.47 v software, and the results are shown in FIG. 2. The data obtained by SPSS version 11.5 for Windows (SPSS Inc., Chicago, Ill., USA) were expressed as the means±standard errors of the means (SEM). […]"}, "[2]": {"system": "prostate-specific antigen (PSA)", "assay": "Western blot of PSA expression in DHT-treated LNCaP cells", "assay_type": "cell-based, human", "details": "5 μM, same concentration as tanshinone2a, DHT-induced LNCaP cells", "method": "as §1, §2, §3"}, "[3]": {"system": "androgen receptor (AR)", "assay": "Western blot of AR expression in DHT-treated LNCaP cells", "assay_type": "cell-based, human", "details": "5 μM, same concentration as tanshinone2a, DHT-induced LNCaP cells", "method": "as §1, §2, §3"}, "[4]": {"system": "androgen-related proteins", "assay": "Overall effect on androgen-related proteins increased by DHT in LNCaP cells", "assay_type": "cell-based, human", "details": "5 μM, compared among tanshinone1, tanshinone2a, cryptotanshinone, 15,16-dihydrotanshinone", "method": "as §1, §2, §3"}, "[5]": {"system": "5α-reductase type 2 (5AR2)", "assay": "Western blot of 5AR2 expression in DHT-treated LNCaP cells", "assay_type": "cell-based, human", "details": "5 μM, DHT-induced LNCaP cells", "method": "as §1, §2, §3"}, "[6]": {"assay": "Body weight in benign prostatic hyperplasia animal models", "assay_type": "in vivo, Sprague-Dawley rats", "details": "BPH rats, oral once/day 14 days; extracts and saw palmetto 10-25 mg/kg, finasteride 10 mg/kg", "method": "Sprague-Dawley rats aged 9 weeks (body weights of 350 g or less) were acclimated for one week or longer, and then used in tests. In order to induce benign prostatic hyperplasia, testicles were removed and then testosterone (dissolved in corn oil) was subcutaneously injected at a dose of 3 mg/kg once/three days for a total of 10 times. […] For the benign prostatic hyperplasia induction groups, testicles were removed and then […] (dissolved in corn oil) was subcutaneously injected at a dose of 3 mg/kg once/three days for a total of 10 times, by the same method as in Example 4.1. For the normal group, an equivalent amount of corn oil was subcutaneously injected. Salvia miltiorrhiza Bunge extracts T70 to T10 and saw palmetto fruit extract were dissolved in distilled water, and orally administered at a dose of 10-25 mg/kg once/day, for 14 days. For the finasteride administration group (Sigma, dissolved in 0.2% Tween 80), finasteride was orally administered at a dose of 10 mg/kg once/day for 14 days. For the negative control group, only distilled water was orally administered. The body weight was measured upon the end of the test, and on the next day after the ending of the last dosing and treatment, the SD-rats were sacrificed with carbon dioxide gas, and then the prostate tissue was extracted and the weight was measured. […]"}, "[7]": {"system": "cells", "details": "as reported by SHAN GAO, et al. (2019); cited from earlier work"}}}
{"molecule": "Cc1cccc2c3c(ccc12)C1=C(C(=O)C3=O)[C@@H](C)CO1", "note": "[15,16-dihydrotanshinone, (1R)-1,6-dimethyl-1,2-dihydronaphtho[1,2-g][1]benzofuran-10,11-dione]", "values": [{"measurement": "inhibition of SRC-1 expression", "setting": "[1]", "result": "more effectively than tanshinone2a"}, {"measurement": "inhibition of PSA expression relative to tanshinone2a", "setting": "[2]", "result": "at least 5 times"}, {"measurement": "inhibition of AR expression relative to tanshinone2a", "setting": "[3]", "result": "at least 5 times"}, {"measurement": "inhibitory effect on androgen-related proteins increased by DHT", "setting": "[4]", "result": "most inhibitory effect"}, {"measurement": "inhibition of 5AR2 expression", "setting": "[5]", "result": "more effectively than tanshinone2a"}]}
{"molecule": "CC(C)(C)NC(=O)[C@H]1CC[C@H]2[C@@H]3CC[C@H]4NC(=O)C=C[C@]4(C)[C@H]3CC[C@]12C", "note": "[finasteride]", "values": [{"measurement": "body weight compared with control group (Con)", "setting": "[6]", "result": "no great difference"}]}
{"molecule": "O=C(/C=C/c1ccc(O)c2c1[C@H](C(=O)O[C@H](Cc1ccc(O)c(O)c1)C(=O)O)[C@@H](c1ccc(O)c(O)c1)O2)O[C@H](Cc1ccc(O)c(O)c1)C(=O)O", "note": "[salvianolic acid B]", "values": [{"measurement": "cytotoxicity", "setting": "[7]", "result": "has cytotoxicity at a predetermined concentration"}]}
